Results from PubChem BioAssay (NCI).
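Step 1: Grow cells in 96-well plates. Step 2: Expose to compound for 48 hours at 5 concentrations. Step 3: Interpolate endpoints linearly; if unreached, use highest concentration. GI50: concentration for 50% inhibition of growth. TGI marks complete inhibition of growth.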

Key:
Test in all cases: growth of human tumour cells (NCI), 48 h
786-0 renal = tested on: 786-0 renal
A498 renal = tested on: A498 renal
A549 NSCLC = tested on: A549 NSCLC
ACHN renal = tested on: ACHN renal
BT-549 breast = tested on: BT-549 breast
CAKI-1 renal = tested on: CAKI-1 renal
CCRF-CEM leukemia = tested on: CCRF-CEM leukemia
COLO 205 colon = tested on: COLO 205 colon
DU-145 prostate = tested on: DU-145 prostate
EKVX NSCLC = tested on: EKVX NSCLC
HCC-2998 colon = tested on: HCC-2998 colon
HCT-116 colon = tested on: HCT-116 colon
HCT-15 colon = tested on: HCT-15 colon
HL-60(TB) leukemia = tested on: HL-60(TB) leukemia
HOP-62 NSCLC = tested on: HOP-62 NSCLC
HOP-92 NSCLC = tested on: HOP-92 NSCLC
HS 578T breast = tested on: HS 578T breast
HT29 colon = tested on: HT29 colon
IGROV1 ovarian = tested on: IGROV1 ovarian
K-562 leukemia = tested on: K-562 leukemia
KM12 colon = tested on: KM12 colon
M14 melanoma = tested on: M14 melanoma
MALME-3M melanoma = tested on: MALME-3M melanoma
MCF7 breast = tested on: MCF7 breast
MDA-MB-231 breast = tested on: MDA-MB-231 breast
MDA-MB-435 = tested on: MDA-MB-435
MOLT-4 leukemia = tested on: MOLT-4 leukemia
NCI-H226 lung = tested on: NCI-H226 lung
NCI-H23 lung = tested on: NCI-H23 lung
NCI-H460 lung = tested on: NCI-H460 lung
NCI-H522 lung = tested on: NCI-H522 lung
NCI/ADR-RES ovarian = tested on: NCI/ADR-RES ovarian
OVCAR-3 ovarian = tested on: OVCAR-3 ovarian
OVCAR-4 ovarian = tested on: OVCAR-4 ovarian
OVCAR-5 ovarian = tested on: OVCAR-5 ovarian
OVCAR-8 ovarian = tested on: OVCAR-8 ovarian
PC-3 prostate = tested on: PC-3 prostate
RPMI-8226 leukemia = tested on: RPMI-8226 leukemia
RXF 393 renal = tested on: RXF 393 renal
SF-268 CNS = tested on: SF-268 CNS
SF-295 CNS = tested on: SF-295 CNS
SF-539 CNS = tested on: SF-539 CNS
SK-MEL-2 melanoma = tested on: SK-MEL-2 melanoma
SK-MEL-28 melanoma = tested on: SK-MEL-28 melanoma
SK-MEL-5 melanoma = tested on: SK-MEL-5 melanoma
SK-OV-3 ovarian = tested on: SK-OV-3 ovarian
SN12C renal = tested on: SN12C renal
SNB-19 CNS = tested on: SNB-19 CNS
SNB-75 CNS = tested on: SNB-75 CNS
SW-620 colon = tested on: SW-620 colon
T-47D breast = tested on: T-47D breast
TK-10 renal = tested on: TK-10 renal
U251 CNS = tested on: U251 CNS
UACC-257 melanoma = tested on: UACC-257 melanoma
UACC-62 melanoma = tested on: UACC-62 melanoma
UO-31 renal = tested on: UO-31 renal

SMILES: Cn1cc(-c2cc3ncnc(Nc4ccc(NC(=O)Nc5cc(C(C)(C)C)on5)cc4)c3s2)cn1
- GI50 (786-0 renal): 720 nM
- TGI (786-0 renal): 8.39 µM
- GI50 (A498 renal): 390 nM
- TGI (A498 renal): 5.17 µM
- GI50 (A549 NSCLC): 764 nM
- TGI (A549 NSCLC): 39.3 µM
- GI50 (ACHN renal): 348 nM
- TGI (ACHN renal): 13.2 µM
- GI50 (BT-549 breast): 835 nM
- TGI (BT-549 breast): 4.37 µM
- GI50 (CAKI-1 renal): 170 nM
- TGI (CAKI-1 renal): 13.9 µM
- GI50 (CCRF-CEM leukemia): 366 nM
- TGI (CCRF-CEM leukemia): 2880 nM
- GI50 (COLO 205 colon): 436 nM
- TGI (COLO 205 colon): 6.42 µM
- GI50 (DU-145 prostate): 686 nM
- TGI (DU-145 prostate): > 34.9 µM
- GI50 (EKVX NSCLC): 1750 nM
- TGI (EKVX NSCLC): 15 µM
- GI50 (HCC-2998 colon): 2500 nM
- TGI (HCC-2998 colon): 11 µM
- GI50 (HCT-116 colon): 377 nM
- TGI (HCT-116 colon): 6.16 µM
- GI50 (HCT-15 colon): 490 nM
- TGI (HCT-15 colon): > 28.5 µM
- GI50 (HL-60(TB) leukemia): 1100 nM
- TGI (HL-60(TB) leukemia): 3.51 µM
- GI50 (HOP-62 NSCLC): 1870 nM
- TGI (HOP-62 NSCLC): 35.9 µM
- GI50 (HOP-92 NSCLC): 1560 nM
- TGI (HOP-92 NSCLC): 14.9 µM
- GI50 (HS 578T breast): 400 nM
- TGI (HS 578T breast): 6.55 µM
- GI50 (HT29 colon): 631 nM
- TGI (HT29 colon): 3.57 µM
- GI50 (IGROV1 ovarian): 363 nM
- TGI (IGROV1 ovarian): 21.3 µM
- GI50 (K-562 leukemia): 295 nM
- TGI (K-562 leukemia): > 100 µM
- GI50 (KM12 colon): 35.1 nM
- TGI (KM12 colon): 18.2 µM
- GI50 (M14 melanoma): 244 nM
- TGI (M14 melanoma): 4.27 µM
- GI50 (MALME-3M melanoma): 348 nM
- TGI (MALME-3M melanoma): 3.76 µM
- GI50 (MCF7 breast): 933 nM
- TGI (MCF7 breast): 4.86 µM
- GI50 (MDA-MB-231 breast): 1740 nM
- TGI (MDA-MB-231 breast): 31.7 µM
- GI50 (MDA-MB-435): 600 nM
- TGI (MDA-MB-435): 18.1 µM
- GI50 (MOLT-4 leukemia): 397 nM
- GI50 (NCI-H226 lung): 517 nM
- TGI (NCI-H226 lung): 19.7 µM
- GI50 (NCI-H23 lung): 764 nM
- TGI (NCI-H23 lung): 6.54 µM
- GI50 (NCI-H460 lung): 296 nM
- TGI (NCI-H460 lung): 23.8 µM
- GI50 (NCI-H522 lung): 916 nM
- TGI (NCI-H522 lung): 5.15 µM
- GI50 (NCI/ADR-RES ovarian): 2950 nM
- TGI (NCI/ADR-RES ovarian): > 44.5 µM
- GI50 (OVCAR-3 ovarian): 1970 nM
- TGI (OVCAR-3 ovarian): 8.44 µM
- GI50 (OVCAR-4 ovarian): 619 nM
- TGI (OVCAR-4 ovarian): > 56.7 µM
- GI50 (OVCAR-5 ovarian): 3.49 µM
- TGI (OVCAR-5 ovarian): 21 µM
- GI50 (OVCAR-8 ovarian): 864 nM
- TGI (OVCAR-8 ovarian): > 100 µM
- GI50 (PC-3 prostate): 791 nM
- TGI (PC-3 prostate): 13.7 µM
- GI50 (RPMI-8226 leukemia): 441 nM
- TGI (RPMI-8226 leukemia): 2470 nM
- GI50 (RXF 393 renal): 307 nM
- TGI (RXF 393 renal): 1550 nM
- GI50 (SF-268 CNS): 1360 nM
- TGI (SF-268 CNS): > 37.2 µM
- GI50 (SF-295 CNS): 552 nM
- TGI (SF-295 CNS): 2220 nM
- GI50 (SF-539 CNS): 216 nM
- TGI (SF-539 CNS): 1870 nM
- GI50 (SK-MEL-2 melanoma): 390 nM
- TGI (SK-MEL-2 melanoma): 2470 nM
- GI50 (SK-MEL-28 melanoma): 1060 nM
- TGI (SK-MEL-28 melanoma): 10.5 µM
- GI50 (SK-MEL-5 melanoma): 904 nM
- TGI (SK-MEL-5 melanoma): 2860 nM
- GI50 (SK-OV-3 ovarian): 314 nM
- TGI (SK-OV-3 ovarian): 16.3 µM
- GI50 (SN12C renal): 379 nM
- TGI (SN12C renal): 28.9 µM
- GI50 (SNB-19 CNS): 3.74 µM
- TGI (SNB-19 CNS): > 38.3 µM
- GI50 (SNB-75 CNS): 182 nM
- TGI (SNB-75 CNS): 4.43 µM
- GI50 (SW-620 colon): 994 nM
- TGI (SW-620 colon): > 35.6 µM
- GI50 (T-47D breast): 513 nM
- TGI (T-47D breast): > 29 µM
- GI50 (TK-10 renal): 2980 nM
- TGI (TK-10 renal): 17.7 µM
- GI50 (U251 CNS): 1450 nM
- TGI (U251 CNS): > 40.3 µM
- GI50 (UACC-257 melanoma): 2120 nM
- TGI (UACC-257 melanoma): 14.7 µM
- GI50 (UACC-62 melanoma): 498 nM
- TGI (UACC-62 melanoma): 8.81 µM
- GI50 (UO-31 renal): 320 nM
- TGI (UO-31 renal): 9.34 µM
